Experimental data: patent US20230181746A1, “BENZOYLHYDRAZIDE-DERIVED HDAC DEGRADERS AS THERAPEUTICS FOR TREATING CANCER AND OTHER HUMAN DISEASES” (University of Florida Research Foundation, Inc., priority 2020, published 2023)

Target: HDAC3 (Homo sapiens, UniProt O15379)
Assay: HDAC3 degradation in breast cancer cell lines, Western blot
Assay type: cell-based
Parameters: endogenous in cells; host or cells: MDA-MB-468, T47D, MCF7
Conditions: MDA-MB-468 cells
Excerpt: Data are presented as representative figures of two independent experiments.
Cells were lysed for WB with antibodies against the indicated proteins. Antibodies against acetylated histones at specific sites (H3K27 and H4K5) and acetyl-lysine were used to assess levels of histone acetylation.
Cells were lysed for WB. […] The indicated BC cell lines were exposed to DMSO, XZ9002, or XZ9002-NC at the indicated concentrations. Colonies were fixed and stained.
Cell lines were obtained from ATCC and subsequently authenticated. Cells were cultured with DMEM supplemented with 10% bovine calf serum, penicillin to 10 units/mL, and streptomycin to 10 μg/mL. For viability assays, 5,000 cells/well were seeded in 96-well plates. […] For colony formation assay, cells (˜1,000 cells/well) were seeded in a 24-well plate in quadruplicates. […] Medium was replaced with freshly prepared medium containing DMSO, XZ9002 or XZ9002-NC every five days until visible colonies appeared, typically in 15 to 20 days after initial cell seeding. Cells were fixed with 4% paraformaldehyde for 15 min and stained with 2% methylene blue in 20% ethanol for 30 min to 1 h. The cells were washed twice with distilled water and dried in air. For western blotting, cell cultures were exposed to compounds as indicated in relevant figures. Medium was removed from culture plate, and 1 x passive lysis buffer was then added, the plates were frozen at −80° C. overnight and thawed at room temperature. The total cell lysates were mixed with a one fifth volume of 6x SDS sample buffer, heated at 95° C. for 5 min and cooled on ice. The lysates were cleared by centrifugation and then subjected to SDS-PAGE and western blotting essentially as described.

HDAC3, sequence (O15379 whole entry): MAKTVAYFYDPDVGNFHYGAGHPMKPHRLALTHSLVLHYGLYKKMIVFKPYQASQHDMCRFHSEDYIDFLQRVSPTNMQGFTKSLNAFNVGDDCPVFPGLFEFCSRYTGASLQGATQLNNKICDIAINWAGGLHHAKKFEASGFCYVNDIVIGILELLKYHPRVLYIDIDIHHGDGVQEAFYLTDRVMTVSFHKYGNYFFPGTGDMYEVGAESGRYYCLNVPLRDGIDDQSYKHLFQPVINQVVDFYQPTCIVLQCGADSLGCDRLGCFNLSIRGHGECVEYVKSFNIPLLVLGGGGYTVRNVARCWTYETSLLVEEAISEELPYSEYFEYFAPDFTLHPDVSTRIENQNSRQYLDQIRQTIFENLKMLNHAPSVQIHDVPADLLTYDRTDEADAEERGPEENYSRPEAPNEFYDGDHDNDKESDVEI
HDAC3, sequence (Q9Y618 395-498 partner limits assumed): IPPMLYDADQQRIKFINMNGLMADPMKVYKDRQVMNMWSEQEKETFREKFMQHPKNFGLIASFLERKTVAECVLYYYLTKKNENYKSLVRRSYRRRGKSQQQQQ

In the case of `CCCNNC(=O)c1ccc(-c2ccc(NC(=O)CCCCCCC(=O)N[C@H](C(=O)N3C[C@H](O)C[C@H]3C(=O)N[C@@H](C)c3ccc(-c4scnc4C)cc3)C(C)(C)C)cc2)cc1` [XZ9002, N^1—((S)-1-((2S,4R)-4-hydroxy-2-(((S)-1-(4-(4-methylthiazol-5-yl)phenyl)ethyl)carbamoyl)pyrrolidin-1-yl)-3,3-dimethyl-1-oxobutan-2-yl)-N^5-(4′-(2-propylhydrazine-1-carbonyl)-[1,1′-biphenyl]-4-yl)octanediamide], the “start of HDAC3 degradation” value (125 nM) is reported as at most 2 h, the “time for HDAC3 to rebound to the steady level after washout” value (125 nM for 14 h, then drug-free medium) is reported as “more than 12 h” and the HDAC3 degraded (125 nM, 8 h) is reported as 70%. The DC50 (14 h treatment, read-out: HDAC3 DC50 (the concentration for 50% protein degradation)) was 42 nM, the “HDAC3 degradation after pre-incubation with proteasome inhibitor MG132” value (MG132 1 μM for 1 h, XZ9002 125 nM) was “blocked” and the “HDAC3 degradation after pre-incubation with VHL ligand VH032” value (VH032 10 μM for 1 h, XZ9002 125 nM) was “blocked”.
